Assay results as given in ChEMBL document CHEMBL3885861, “Open TG-GATES”.

Species on record: Rattus norvegicus
Assay: Open TG-GATES - Regimen: Single
Type: toxicity, organism-based, Sprague-Dawley
Parameters: regimen Single, gender Male, age 6 weeks
Conditions: in vivo, po, 30 mg/kg, route gavage, dose level Low; for APTT / Bas / Eos / Fbg / Hb / Ht / Lym / MCH / MCHC / MCV / Mono / Neu / PT / Plat / RBC / Ret / WBC: tissue Blood; for KIDNEY_L / KIDNEY_R / KIDNEY_TOTAL: tissue Kidney; for LIVER: tissue Liver; for A/G / ALP / ALT / AST / BUN / CRE / Ca / Cl / DBIL / GLC / IP / K / LDH / Na / PL / RALB / TBIL / TC / TG / TP / gamma-GTP: tissue Plasma

Cc1cccc(Nc2ccccc2C(=O)O)c1C [MEFENAMIC ACID]
TERMINAL_BW (3 h): 215.4 g
APTT (3 h): 19 s
Bas (3 h): 0%
Eos (3 h): 1%
Fbg (3 h): 214.4 mg/dL
Hb (3 h): 13.3 g/dL
Ht (3 h): 37.7%
Lym (3 h): 79.6%
MCH (3 h): 22 pg
MCHC (3 h): 35.3%
MCV (3 h): 62.1 fL
Mono (3 h): 2.2%
Neu (3 h): 15.4%
PT (3 h): 12.4 s
Plat (3 h): 118.3 x10_4/uL
RBC (3 h): 607.2 x10_4/ul
Ret (3 h): 7.3%
WBC (3 h): 91.2 x10_2/uL
KIDNEY_L (3 h): 1 g
KIDNEY_R (3 h): 1 g
KIDNEY_TOTAL (3 h): 2 g
LIVER (3 h): 9.5 g
A/G (3 h): 1.6
ALP (3 h): 842.4 IU/L
ALT (3 h): 36.2 IU/L
AST (3 h): 68.8 IU/L
BUN (3 h): 11 mg/dL
CRE (3 h): 0.4 mg/dL
Ca (3 h): 10.7 mg/dL
Cl (3 h): 103.6 meq/L
DBIL (3 h): 0.074 mg/dL
GLC (3 h): 189.8 mg/dL
IP (3 h): 8.8 mg/dL
K (3 h): 4.1 meq/L
LDH (3 h): 197.4 IU/L
Na (3 h): 141.2 meq/L
PL (3 h): 134.8 mg/dL
RALB (3 h): 3.4 g/dL
TBIL (3 h): 0.1 mg/dL
TC (3 h): 73.4 mg/dL
TG (3 h): 49.2 mg/dL
TP (3 h): 5.4 g/dL
gamma-GTP (3 h): 1.2 IU/L
TERMINAL_BW (6 h): 213 g
APTT (6 h): 18.5 s
Bas (6 h): 0%
Eos (6 h): 1%
Fbg (6 h): 226.6 mg/dL
Hb (6 h): 13.4 g/dL
Ht (6 h): 37.4%
Lym (6 h): 76.8%
MCH (6 h): 22.3 pg
MCHC (6 h): 35.8%
MCV (6 h): 62.5 fL
Mono (6 h): 2.6%
Neu (6 h): 18.2%
PT (6 h): 12.6 s
Plat (6 h): 118.7 x10_4/uL
RBC (6 h): 599 x10_4/ul
Ret (6 h): 7.5%
WBC (6 h): 86.8 x10_2/uL
KIDNEY_L (6 h): 1 g
KIDNEY_R (6 h): 1 g
KIDNEY_TOTAL (6 h): 2 g
LIVER (6 h): 9.5 g
A/G (6 h): 1.7
ALP (6 h): 972 IU/L
ALT (6 h): 37.4 IU/L
AST (6 h): 65.2 IU/L
BUN (6 h): 9.8 mg/dL
CRE (6 h): 0.3 mg/dL
Ca (6 h): 10.5 mg/dL
Cl (6 h): 102.6 meq/L
DBIL (6 h): 0.07 mg/dL
GLC (6 h): 191.2 mg/dL
IP (6 h): 8.7 mg/dL
K (6 h): 4 meq/L
LDH (6 h): 168.4 IU/L
Na (6 h): 140.2 meq/L
PL (6 h): 136.6 mg/dL
RALB (6 h): 3.4 g/dL
TBIL (6 h): 0.1 mg/dL
TC (6 h): 77.8 mg/dL
TG (6 h): 58 mg/dL
TP (6 h): 5.4 g/dL
gamma-GTP (6 h): 1 IU/L
TERMINAL_BW (9 h): 211.9 g
APTT (9 h): 18.5 s
Bas (9 h): 0%
Eos (9 h): 1%
Fbg (9 h): 214.2 mg/dL
Hb (9 h): 13.3 g/dL
Ht (9 h): 37.1%
Lym (9 h): 79.8%
MCH (9 h): 21.4 pg
MCHC (9 h): 35.7%
MCV (9 h): 60 fL
Mono (9 h): 3%
Neu (9 h): 14.6%
PT (9 h): 12.9 s
Plat (9 h): 120.5 x10_4/uL
RBC (9 h): 621.4 x10_4/ul
Ret (9 h): 7.2%
WBC (9 h): 68.9 x10_2/uL
KIDNEY_L (9 h): 0.9 g
KIDNEY_R (9 h): 1 g
KIDNEY_TOTAL (9 h): 1.9 g
LIVER (9 h): 8.5 g
A/G (9 h): 1.6
ALP (9 h): 921.4 IU/L
ALT (9 h): 30.2 IU/L
AST (9 h): 62 IU/L
BUN (9 h): 10.8 mg/dL
CRE (9 h): 0.3 mg/dL
Ca (9 h): 10.5 mg/dL
Cl (9 h): 102.4 meq/L
DBIL (9 h): 0.066 mg/dL
GLC (9 h): 192.6 mg/dL
IP (9 h): 9.1 mg/dL
K (9 h): 3.8 meq/L
LDH (9 h): 164.8 IU/L
Na (9 h): 139.8 meq/L
PL (9 h): 140.2 mg/dL
RALB (9 h): 3.3 g/dL
TBIL (9 h): 0.1 mg/dL
TC (9 h): 79 mg/dL
TG (9 h): 42.8 mg/dL
TP (9 h): 5.3 g/dL
gamma-GTP (9 h): 1 IU/L
TERMINAL_BW (24 h): 227.6 g
APTT (24 h): 18.2 s
Bas (24 h): 0%
Eos (24 h): 1%
Fbg (24 h): 227.4 mg/dL
Hb (24 h): 13.4 g/dL
Ht (24 h): 38.5%
Lym (24 h): 76.2%
MCH (24 h): 22.3 pg
MCHC (24 h): 34.9%
MCV (24 h): 63.9 fL
Mono (24 h): 3.4%
Neu (24 h): 17.2%
PT (24 h): 11.9 s
Plat (24 h): 117.8 x10_4/uL
RBC (24 h): 604 x10_4/ul
Ret (24 h): 6.7%
WBC (24 h): 93.5 x10_2/uL
KIDNEY_L (24 h): 1 g
KIDNEY_R (24 h): 1 g
KIDNEY_TOTAL (24 h): 2 g
LIVER (24 h): 10.7 g
A/G (24 h): 1.5
ALP (24 h): 1061.2 IU/L
ALT (24 h): 42.2 IU/L
AST (24 h): 71 IU/L
BUN (24 h): 15 mg/dL
CRE (24 h): 0.4 mg/dL
Ca (24 h): 10.8 mg/dL
Cl (24 h): 102.8 meq/L
DBIL (24 h): 0.096 mg/dL
GLC (24 h): 205.4 mg/dL
IP (24 h): 7.6 mg/dL
K (24 h): 4.2 meq/L
LDH (24 h): 198 IU/L
Na (24 h): 139.6 meq/L
PL (24 h): 161 mg/dL
RALB (24 h): 3.5 g/dL
TBIL (24 h): 0.2 mg/dL
TC (24 h): 80.8 mg/dL
TG (24 h): 116.2 mg/dL
TP (24 h): 5.7 g/dL
gamma-GTP (24 h): 1.4 IU/L
